Measurements published in US20250270707A1, “NON-TRIAZOLE IMIDAZOLINE AND AMIDE COMPOUNDS AND METHODS FOR INHIBITING CORROSION IN INDUSTRIAL WATER TREATMENT” (CHEMTREAT, INC., priority 2023, published 2025).

Experiments:
[1] = Corrosion rate by LPR sweep, copper coupons in synthetic water, 50° C., 1 ppm free chlorine after 0.5 hrs (Examples 1 and 2); conditions: for corrosion inhibition properties over the entire 18 hour period (in words): Example 2
Description: (§1) One liter samples of synthetic water were each dosed with the compositions in Table 1.
(§2) The apparatus used for the corrosion testing was a Gamry Multiport Corrosion Cell and Gamry Reference 600+potentiostat with multiplexor. Copper coupons (CDA110) were added to the sample cells containing neutral water (pH 7.5), and the cells were dosed with 50 ppm of scale inhibitor (co-polymer and 2-phosphonobutane-1,2,4-yricarboxylic acid) and heated to 50° C. and maintained at this temperature throughout the testing. The cells were continuously stirred at a speed of 350 rpm. A cylindrical working electrode was submerged into the test solutions, and an LPR sweep (linear polarization resistance) was performed every hour for 18 hours. After the 0.5 hrs mark, 1 ppm of free chlorine was dosed into the corrosion cell.
(§3) One liter samples of the synthetic water described above with respect to Example 1 were each dosed with the compositions in Table 5 and processed under conditions similar to Example 1.

[2] = Cl2 demand in the corrosion cell test (Examples 1 and 2); assay type: physicochemical
Description: as §1, §2, §3

[3] = Control normalized Cl2 demand over time (Example 3, FIG. 3); assay type: physicochemical; conditions: 1 ppm; compared to 50% sodium glucoheptonate (10 ppm)
Text: One liter samples of the synthetic water described above with respect to Example 1 were each dosed with the compositions in Table 7 and processed under conditions similar to Example 1.

Q: What does the source list for “sodium dicarboxylethyl coco phosphoethyl imidazoline [SDCPI]”?
A: CR Average (10-18 hrs) ([1]; 1 ppm): 0.224 mpy; CR Peak ([1]; 1 ppm): 0.279 mpy; corrosion rate ([1]; 1 ppm, 0 hrs): 0.025 mpy; corrosion rate ([1]; 1 ppm, 1 hrs): 0.279 mpy; corrosion rate ([1]; 1 ppm, 2 hrs): 0.252 mpy; corrosion rate ([1]; 1 ppm, 3 hrs): 0.257 mpy; corrosion rate ([1]; 1 ppm, 4 hrs): 0.245 mpy; corrosion rate ([1]; 1 ppm, 5 hrs): 0.214 mpy; corrosion rate ([1]; 1 ppm, 6 hrs): 0.200 mpy; corrosion rate ([1]; 1 ppm, 7 hrs): 0.184 mpy; corrosion rate ([1]; 1 ppm, 8 hrs): 0.175 mpy; corrosion rate ([1]; 1 ppm, 9 hrs): 0.174 mpy; corrosion rate ([1]; 1 ppm, 10 hrs): 0.182 mpy; corrosion rate ([1]; 1 ppm, 11 hrs): 0.197 mpy; corrosion rate ([1]; 1 ppm, 12 hrs): 0.213 mpy; corrosion rate ([1]; 1 ppm, 13 hrs): 0.226 mpy; corrosion rate ([1]; 1 ppm, 14 hrs): 0.240 mpy; corrosion rate ([1]; 1 ppm, 15 hrs): 0.247 mpy; corrosion rate ([1]; 1 ppm, 16 hrs): 0.249 mpy; corrosion rate ([1]; 1 ppm, 17 hrs): 0.241 mpy; corrosion rate ([1]; 1 ppm, 18 hrs): 0.226 mpy; CR Average (10-18 hrs) ([1]; 2 ppm): 0.013 mpy; CR Peak ([1]; 2 ppm): 0.092 mpy; corrosion rate ([1]; 2 ppm, 0 hrs): 0.0168 mpy; corrosion rate ([1]; 2 ppm, 1 hrs): 0.0923 mpy; corrosion rate ([1]; 2 ppm, 2 hrs): 0.0637 mpy; corrosion rate ([1]; 2 ppm, 3 hrs): 0.0529 mpy; corrosion rate ([1]; 2 ppm, 4 hrs): 0.0240 mpy; corrosion rate ([1]; 2 ppm, 5 hrs): 0.0173 mpy; corrosion rate ([1]; 2 ppm, 6 hrs): 0.0164 mpy; corrosion rate ([1]; 2 ppm, 7 hrs): 0.0167 mpy; corrosion rate ([1]; 2 ppm, 8 hrs): 0.0171 mpy; corrosion rate ([1]; 2 ppm, 9 hrs): 0.0179 mpy; corrosion rate ([1]; 2 ppm, 10 hrs): 0.0165 mpy; corrosion rate ([1]; 2 ppm, 11 hrs): 0.0151 mpy; corrosion rate ([1]; 2 ppm, 12 hrs): 0.0139 mpy; corrosion rate ([1]; 2 ppm, 13 hrs): 0.0133 mpy; corrosion rate ([1]; 2 ppm, 14 hrs): 0.0127 mpy; corrosion rate ([1]; 2 ppm, 15 hrs): 0.0117 mpy; corrosion rate ([1]; 2 ppm, 16 hrs): 0.0116 mpy; corrosion rate ([1]; 2 ppm, 17 hrs): 0.0113 mpy; corrosion rate ([1]; 2 ppm, 18 hrs): 0.0103 mpy; CR Average (10-18 hrs) ([1]; 3 ppm): 0.042 mpy; CR Peak ([1]; 3 ppm): 0.053 mpy; corrosion rate ([1]; 3 ppm, 0 hrs): 0.013 mpy; corrosion rate ([1]; 3 ppm, 1 hrs): 0.053 mpy; corrosion rate ([1]; 3 ppm, 2 hrs): 0.039 mpy; corrosion rate ([1]; 3 ppm, 3 hrs): 0.043 mpy; corrosion rate ([1]; 3 ppm, 4 hrs): 0.042 mpy; corrosion rate ([1]; 3 ppm, 5 hrs): 0.042 mpy; corrosion rate ([1]; 3 ppm, 6 hrs): 0.044 mpy; corrosion rate ([1]; 3 ppm, 7 hrs): 0.044 mpy; corrosion rate ([1]; 3 ppm, 8 hrs): 0.044 mpy; corrosion rate ([1]; 3 ppm, 9 hrs): 0.046 mpy; corrosion rate ([1]; 3 ppm, 10 hrs): 0.046 mpy; corrosion rate ([1]; 3 ppm, 11 hrs): 0.046 mpy; corrosion rate ([1]; 3 ppm, 12 hrs): 0.044 mpy; corrosion rate ([1]; 3 ppm, 13 hrs): 0.043 mpy; corrosion rate ([1]; 3 ppm, 14 hrs): 0.042 mpy; corrosion rate ([1]; 3 ppm, 15 hrs): 0.041 mpy; corrosion rate ([1]; 3 ppm, 16 hrs): 0.040 mpy; corrosion rate ([1]; 3 ppm, 17 hrs): 0.039 mpy; corrosion rate ([1]; 3 ppm, 18 hrs): 0.038 mpy; corrosion inhibition properties over the entire 18 hour period (in words) ([1]; 2 ppm): good corrosion inhibition properties; Cl2 Demand ([2]; 1 ppm): 0.3 mg/L; Cl2 Demand ([2]; 2 ppm): 0.9 mg/L; Cl2 Demand ([2]; 3 ppm): 0.8 mg/L; control normalized C12 demand over time (in words) [3]: did not result in significant loss of C12 demand

Q: For Disodium Cocoamphodiacetate [DCADAA], which “CR Average (10-18 hrs)” value ([1]; 2 ppm) is on record?
A: The value was 0.036 mpy.

Q: What about the “CR Peak” value ([1]; 2 ppm) of the same compound?
A: Its value is 0.180 mpy.

Q: And the corrosion rate ([1]; 2 ppm, 0 hrs)?
A: Its corrosion rate is 0.0198 mpy.

Q: And the corrosion rate ([1]; 2 ppm, 1 hrs)?
A: The corrosion rate was 0.1804 mpy.

Q: And the corrosion rate ([1]; 2 ppm, 2 hrs)?
A: Its corrosion rate is 0.1576 mpy.

Q: And the corrosion rate ([1]; 2 ppm, 3 hrs)?
A: The corrosion rate was 0.1608 mpy.

Q: And the corrosion rate ([1]; 2 ppm, 4 hrs)?
A: The corrosion rate was 0.1140 mpy.

Q: What about the corrosion rate ([1]; 2 ppm, 5 hrs) of the same compound?
A: Its corrosion rate is 0.1360 mpy.

Q: What about the corrosion rate ([1]; 2 ppm, 6 hrs) of the same compound?
A: Its corrosion rate is 0.0910 mpy.

Q: What about the corrosion rate ([1]; 2 ppm, 7 hrs) of the same compound?
A: The corrosion rate was 0.0780 mpy.

Q: And the corrosion rate ([1]; 2 ppm, 8 hrs)?
A: Its corrosion rate is 0.0629 mpy.

Q: What about the corrosion rate ([1]; 2 ppm, 9 hrs) of the same compound?
A: The corrosion rate was 0.0545 mpy.

Q: And the corrosion rate ([1]; 2 ppm, 10 hrs)?
A: Its corrosion rate is 0.0516 mpy.

Q: And the corrosion rate ([1]; 2 ppm, 11 hrs)?
A: The corrosion rate was 0.0459 mpy.

Q: And the corrosion rate ([1]; 2 ppm, 12 hrs)?
A: Its corrosion rate is 0.0419 mpy.

Q: And the corrosion rate ([1]; 2 ppm, 13 hrs)?
A: Its corrosion rate is 0.0375 mpy.

Q: And the corrosion rate ([1]; 2 ppm, 14 hrs)?
A: Its corrosion rate is 0.0349 mpy.

Q: What about the corrosion rate ([1]; 2 ppm, 15 hrs) of the same compound?
A: The corrosion rate was 0.0316 mpy.

Q: What about the corrosion rate ([1]; 2 ppm, 16 hrs) of the same compound?
A: Its corrosion rate is 0.0290 mpy.

Q: And the corrosion rate ([1]; 2 ppm, 17 hrs)?
A: The corrosion rate was 0.0246 mpy.

Q: And the corrosion rate ([1]; 2 ppm, 18 hrs)?
A: Its corrosion rate is 0.0252 mpy.

Q: What about the “corrosion inhibition properties over the entire 18 hour period (in words)” value ([1]; 2 ppm) of the same compound?
A: Its value is “good corrosion inhibition properties”.

Q: What about the “Cl2 Demand” value ([2]; 2 ppm) of the same compound?
A: Its value is 0.6 mg/L.

Q: Which “CR Average (10-18 hrs)” value ([1]; 7 ppm) does the source give for `CCCCCCCCCCCCCCCCCCN(C(=O)CC(C(=O)[O-])S(=O)(=O)[O-])C(CC(=O)[O-])C(=O)[O-].[Na+].[Na+].[Na+].[Na+]` (centres unmarked) [TDSS, Tetrasodium Dicarboxyethyl Stearyl Sulfosuccinamate, reference compound] here?
A: The value was 0.141 mpy.

Q: And the “CR Peak” value ([1]; 7 ppm)?
A: Its value is 0.243 mpy.

Q: And the corrosion rate ([1]; 7 ppm, 0 hrs)?
A: The corrosion rate was 0.0149 mpy.

Q: What about the corrosion rate ([1]; 7 ppm, 1 hrs) of the same compound?
A: The corrosion rate was 0.1875 mpy.

Q: And the corrosion rate ([1]; 7 ppm, 2 hrs)?
A: The corrosion rate was 0.2432 mpy.

Q: And the corrosion rate ([1]; 7 ppm, 3 hrs)?
A: Its corrosion rate is 0.2313 mpy.

Q: What about the corrosion rate ([1]; 7 ppm, 4 hrs) of the same compound?
A: The corrosion rate was 0.1839 mpy.

Q: And the corrosion rate ([1]; 7 ppm, 5 hrs)?
A: The corrosion rate was 0.1611 mpy.

Q: And the corrosion rate ([1]; 7 ppm, 6 hrs)?
A: Its corrosion rate is 0.1349 mpy.

Q: And the corrosion rate ([1]; 7 ppm, 7 hrs)?
A: Its corrosion rate is 0.1387 mpy.

Q: And the corrosion rate ([1]; 7 ppm, 8 hrs)?
A: The corrosion rate was 0.1304 mpy.

Q: And the corrosion rate ([1]; 7 ppm, 9 hrs)?
A: Its corrosion rate is 0.1291 mpy.

Q: What about the corrosion rate ([1]; 7 ppm, 10 hrs) of the same compound?
A: The corrosion rate was 0.1381 mpy.

Q: And the corrosion rate ([1]; 7 ppm, 11 hrs)?
A: The corrosion rate was 0.1431 mpy.

Q: And the corrosion rate ([1]; 7 ppm, 12 hrs)?
A: The corrosion rate was 0.1363 mpy.

Q: And the corrosion rate ([1]; 7 ppm, 13 hrs)?
A: The corrosion rate was 0.1485 mpy.

Q: And the corrosion rate ([1]; 7 ppm, 14 hrs)?
A: The corrosion rate was 0.1371 mpy.

Q: And the corrosion rate ([1]; 7 ppm, 15 hrs)?
A: The corrosion rate was 0.1428 mpy.

Q: What about the corrosion rate ([1]; 7 ppm, 16 hrs) of the same compound?
A: The corrosion rate was 0.1422 mpy.

Q: And the corrosion rate ([1]; 7 ppm, 17 hrs)?
A: Its corrosion rate is 0.1375 mpy.

Q: What about the corrosion rate ([1]; 7 ppm, 18 hrs) of the same compound?
A: The corrosion rate was 0.1422 mpy.

Q: What about the “Cl2 Demand” value ([2]; 7 ppm) of the same compound?
A: The value was 0.8 mg/L.
